What was measured:
Experiment in all cases: relative viability (nuclei count vs DMSO), 5 days (fraction); higher = more cells survive
[1] = compound: C(C(=O)C(=O)O)Br [Bromopyruvate] + CC(=O)Nc1cccc(-n2c(=O)n(C3CC3)c(=O)c3c(Nc4ccc(I)cc4F)n(C)c(=O)c(C)c32)c1 [Trametinib] (partner 0.02 µM)
Procedure, shortened: (§1)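 Five library-drug doses in √10 steps were combined with a fixed anchor-drug dose, or a single drug was given alone, by pin tool to lung cancer cell lines in 1536-well plates the day after seeding. Nuclei were stained and counted after 5 days. Relative viability is the nuclei count in treated wells over that in vehicle wells, taken as the median of duplicate plates.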

[2] = compound: C(C(=O)C(=O)O)Br [Bromopyruvate] + CCNC(=O)c1noc(-c2cc(C(C)C)c(O)cc2O)c1-c1ccc(CN2CCOCC2)cc1 [Luminespib] (partner 0.01 µM)
Procedure, shortened: as §1

[3] = compound: CC(O)(CS(=O)(=O)c1ccc(F)cc1)C(=O)Nc1ccc(C#N)c(C(F)(F)F)c1 [Bicalutamide] + CS(=O)(=O)N1CCN(Cc2cc3nc(-c4cccc5[nH]ncc45)nc(N4CCOCC4)c3s2)CC1 [Pictilisib] (partner 1 µM)
Procedure, shortened: as §1

Bicalutamide + Olaparib = compound: CC(O)(CS(=O)(=O)c1ccc(F)cc1)C(=O)Nc1ccc(C#N)c(C(F)(F)F)c1 [Bicalutamide] + O=C(c1cc(Cc2n[nH]c(=O)c3ccccc23)ccc1F)N1CCN(C(=O)C2CC2)CC1 [Olaparib] (partner 8 µM)
Procedure, shortened: as §1

Cell Line | relative viability ([1]; first compound 1 µM) | relative viability ([1]; first compound 3.162 µM) | relative viability ([1]; first compound 10 µM) | relative viability ([1]; first compound 31.62 µM) | relative viability ([1]; first compound 100 µM) | relative viability ([2]; first compound 1 µM) | relative viability ([2]; first compound 3.162 µM) | relative viability ([2]; first compound 10 µM) | relative viability ([2]; first compound 31.62 µM) | relative viability ([2]; first compound 100 µM) | relative viability ([3]; first compound 0.08 µM) | relative viability ([3]; first compound 0.253 µM) | relative viability ([3]; first compound 0.8 µM) | relative viability ([3]; first compound 2.53 µM) | relative viability (Bicalutamide + Olaparib; first compound 0.08 µM) | relative viability (Bicalutamide + Olaparib; first compound 0.253 µM) | relative viability (Bicalutamide + Olaparib; first compound 0.8 µM) | relative viability (Bicalutamide + Olaparib; first compound 2.53 µM)
NCI-H1915 | 0.308 | 0.293 | 0.296 | 0.342 | 0.349 | 0.673 | 0.849 | 0.925 | 0.706 | 0.781 | 0.91 | 0.782 | 1 | 0.775 | 0.25 | 0.232 | 0.29 | 0.254
NCI-H1944 | 0.428 | 0.376 | 0.409 | 0.435 | 0.398 | 0.716 | 0.785 | 0.967 | 0.7 | 0.734 | 0.4 | 0.296 | 0.334 | 0.327 | 0.424 | 0.388 | 0.46 | 0.375
NCI-H1975 | 0.361 | 0.334 | 0.329 | 0.345 | 0.365 | 0.227 | 0.286 | 0.084 | 0.255 | 0.253 | 0.291 | 0.331 | 0.329 | 0.233 | 0.81 | 0.772 | 1 | 0.59
NCI-H1993 | 0.52 | 0.561 | 0.493 | 0.533 | 0.535 | 0.483 | 0.997 | 1.26 | 0.862 | 0.833 | – | 0.764 | 0.744 | 0.671 | 1.05 | 0.785 | 1.17 | 1.01
NCI-H2009 | 0.277 | 0.328 | 0.246 | 0.26 | 0.245 | 1 | 1.09 | 0.953 | 1.01 | 0.708 | 1.2 | 0.944 | 1.06 | 0.737 | 0.675 | 0.702 | 0.715 | 0.667
NCI-H2023 | 0.55 | 0.483 | 0.517 | 0.562 | 0.482 | 0.77 | 0.883 | 0.789 | 0.65 | 0.901 | 0.279 | 0.21 | 0.253 | 0.178 | 0.534 | 0.493 | 0.495 | 0.394
NCI-H2085 | 0.559 | 0.685 | 0.516 | 0.563 | 0.341 | 0.417 | 0.425 | 0.508 | 0.396 | 0.217 | 0.445 | 0.461 | 0.442 | 0.39 | 0.758 | 0.865 | 0.773 | 0.781
NCI-H2087 | 0.224 | 0.189 | 0.156 | 0.175 | 0.185 | 0.141 | 0.176 | 0.16 | 0.175 | 0.161 | 0.84 | 0.891 | 1.05 | 0.835 | 0.527 | 0.51 | 0.75 | 0.572
NCI-H2126 | 0.547 | 0.579 | 0.559 | 0.591 | 0.57 | 0.888 | 0.892 | 0.943 | 0.896 | 0.874 | 0.494 | 0.468 | 0.511 | 0.43 | 0.989 | 0.913 | 1.01 | 0.859
NCI-H2170 | 0.918 | 0.923 | 0.99 | 0.902 | 0.925 | 0.75 | 0.979 | 0.689 | 0.574 | 0.583 | 0.308 | 0.298 | 0.289 | 0.302 | 0.612 | 0.572 | 0.536 | 0.645
NCI-H2228 | 0.472 | 0.505 | 0.548 | 0.514 | 0.538 | 0.182 | 0.144 | 0.148 | 0.145 | 0.193 | 0.347 | 0.341 | 0.425 | 0.409 | 0.748 | 0.536 | 1.16 | 0.524
NCI-H2347 | 0.224 | 0.28 | 0.335 | 0.248 | 0.274 | 0.783 | 0.522 | 0.686 | 0.401 | 0.702 | 0.735 | 0.728 | 0.876 | 0.632 | 0.518 | 0.555 | 0.62 | 0.54
NCI-H2405 | 0.735 | 0.739 | 0.764 | – | 0.684 | 0.719 | 0.643 | 0.738 | 0.741 | 0.675 | 0.478 | 0.421 | 0.556 | 0.368 | 0.947 | 0.83 | 0.919 | 0.842
NCI-H3122 | 0.223 | 0.237 | 0.24 | 0.204 | 0.129 | 0.0847 | 0.0952 | 0.105 | 0.0703 | 0.0612 | 0.665 | 0.645 | 0.676 | 0.652 | 0.536 | 0.657 | 0.712 | 0.617
PC-3 [JPC-3] | 0.734 | – | 0.787 | – | 0.734 | 0.797 | 0.752 | 0.766 | 0.608 | 0.693 | 0.76 | 0.56 | 0.822 | 0.723 | 1.22 | 1.09 | 1.16 | 1.24
PC-14 | 0.8 | 0.717 | 0.953 | 0.718 | 0.753 | 0.191 | 0.184 | 0.169 | 0.157 | 0.203 | 0.894 | 0.652 | 0.707 | 0.659 | 0.346 | 0.3 | 0.274 | 0.271
RERF-LC-KJ | 0.657 | 0.984 | 0.921 | 0.85 | 0.909 | 1.28 | 1.32 | 1.2 | 1.21 | 1.23 | 0.628 | 0.506 | 0.634 | 0.613 | 0.979 | 1.04 | 0.962 | 0.768
SK-LU-1 | 0.503 | 0.469 | 0.599 | 0.467 | 0.538 | 0.213 | 0.195 | 0.208 | 0.194 | 0.215 | 0.6 | 0.503 | 0.715 | 0.59 | 0.502 | 0.482 | 0.633 | 0.486

From the supplement of paper PMC10307832
